# Marks after values point to notes of the source that are not given here.
# System: rat plasma protein
# Assay: In vivo plasma protein binding (PPB) assay in rat
# Format: in vitro ADME
# Details: rat in vivo plasma samples; dialysis 4 h 37° C.; average of 3 or 4 results
# Experimental: 1.1 Preparation of Dialysis Membrane and Matrix
# On the day of the assay, frozen plasma was thawed in running cold tap water. After the plasma was completely thawed, the plasma was centrifuged at 3220×g for 5 min, and suspensions and sediments in the plasma were removed.
# A double-layer dialysis membrane was soaked in ultrapure water for about 1 h, and then taken out. The double-layer dialysis membrane was divided into two parts, and then soaked in ethanol-water (20:80, v:v) solution for 20 min or placed at 2-8° C. with a validity period of 1 month. Before the start of the assay, the dialysis membrane was rinsed twice with ultrapure water and soaked in ultrapure water for another 20 min for use.
# 1.2 The Mixing Steps of Compound Sample and the Dilution Process of Control Compound
# 1.2.1 The Mixing Steps of Compound Sample
# An appropriate amount of original samples were transferred to a collection tube of mixed samples, and the samples in the collection tube of mixed samples were mixed thoroughly.
# 1.2.2 The Dilution Process of the Control Compound
# The control compound was dissolved in dimethyl sulfoxide to obtain a 10 mM stock solution. A working solution of 400 μM was obtained by dilution with dimethyl sulfoxide. Preparation process of plasma sample: 995 μL of blank plasma was weighed, and 5 μL of warfarin working solution was added. […]
smiles,measurement,value
CO[C@@H]1C[C@@H](CO)OC[C@@H]1Nc1ncnc2[nH]cc(C(=O)c3ccc(Oc4ccccc4)cc3Cl)c12 [Compound 4],Unbound PPB,0.2% ^a
